Assay results reported in US20240083933A1, “DISACCHARIDES FOR TREATING BONE DISEASES” (UNIVERSITE DE PICARDIE JULES VERNE, priority 2020, published 2024).
Several values for one entry are separate records, joined by “and”; a condition that tells them apart may be missing. Equal entries are not always repeated.

What was measured:
Type in all cases: cell-based
HOb cells = assay: Calcium assay (pro-calcifying activity, mineralization) on human primary osteoblastic cells; settings: for percentage of mineralization of the HOb cells / increase in calcification relative to the mineralizing condition: 14 days; for percentage of mineralization of the HOb cells: mineralizing conditions; for increase in calcification relative to the mineralizing condition: HOb
Procedure: (§1) For all experiments, a mouse pre-osteoblastic cell line (MC3T3-E1, ATCC) and human primary osteoblastic cells (HOb, Promocell) were used. The mouse pre-osteoblastic cells were cultured in 75 cm^2 flasks, containing 15 mL of α-MEM medium (M4526, SIGMA) and 10% fetal calf serum (FCS), containing 1% Penicillin/Streptomycin antibiotics and 1% glutamine. Similarly, human HOb cells were cultured in 75 cm 2 flasks containing 15 mL of proliferation medium (Human Osteoblast Proliferation Medium, PromoCell). The cells are maintained in the oven at 37° C., with 5% CO2 and 90% humidity. The medium was changed every three days.
(§2) MC3T3-E1 cells were seeded in 6-well plates at 63,700 cells/well to be treated in order to extract RNA or for alkaline phosphatase enzymatic activity assay and in 48-well plates for the calcium assay at 5250 cells/well. The HOb cells were seeded at 182,000 cells/well in 6-well plates for the extraction of RNA or for the alkaline phosphatase enzymatic activity assay; at 15,000 cells/well in 48-well plates for the calcium assay; at 10,000 cells/well in 48-well plates for the MTT test or the WST-1 test and at 100,000 cells/well in 6-well plates for the protein extraction or for the fluorescence.
(§3) In order to induce the mineralization, the MC3T3-E1 cells were treated with α-MEM medium containing 5% FCS to which 10 mM of β-glycerophosphate and 50 μg/mL of ascorbic acid are added. The HOb cells were treated with the “Osteoblast mineralization medium” (Promocell). […] After filtration, the cells were treated with the respective media (500 μL per well of the 48-well plate and 2 mL per well of the 6-well plate).
The calcification has also been studied on human osteoblastic cells (Hob, PromoCell, Heidelberg, Germany). They are isolated from femoral trabecular bone tissues.

MC3T3-E1 cells = assay: Calcium assay (pro-calcifying activity) on mouse pre-osteoblastic cells; settings: for increase in calcification relative to the mineralizing medium: MC3T3-E1, 25 days
Procedure: FIG. 1 represents the calcium dosage in the MC3T3-E1 culture medium (in […] of protein per well) after 9 days of exposure of these cells to 4 mM of Pi ([…]) (control+Pi) and 4 mM of Pi in the presence of 30 μM of each of the compounds referenced DP2SNA, DP2NA, DP2K and DP2S;
as §1, §2, §3
The release of calcium in the culture medium of mouse pre-osteoblastic cells (MC3T3-E1) has been studied.
An increase in calcification was observed, relative to the mineralizing medium (FIG. 2), in the presence of DP2R0 at 15 μM (40±2%), at 30 μM (28±18%) and at 50 μM (40±28%), and DP2NA at 15 μM (15±14%), at 30 μM (33±12%) and at 50 μM (10±19%).

smooth muscle cells = assay: Calcium production by smooth muscle cells; settings: non-calcifying control condition; DP2 5-50 μM (FIG. 5)
Excerpt: FIG. […]
This therefore reinforces the hypothesis that DP2 will not induce any calcification on cells other than the osteoblastic cells.

CCCO[C@H]1OC(CO)[C@@H](O[C@@H]2OC(CO)[C@@H](O)C(O)C2NC(C)=O)C(O)C1OC(C)=O (stereo partly drawn) [DP2, n-propyl, 2-O-acetyl-α-D-Glucopyranoside, 4-O-(2-acetamido-2-deoxy-β-D-glucopyranosyl)]
percentage of mineralization of the HOb cells (HOb cells; 30 μM, listed as DP2R0): 181.573±9.155% | percentage of mineralization of the HOb cells (HOb cells; 30 μM, listed as DP2R2): 137.012±52.452% and 204.472% and 159.03±18.719% | increase in calcification relative to the mineralizing condition (HOb cells; 15 μM): 26±10% | increase in calcification relative to the mineralizing condition (HOb cells; 30 μM): 40±15% | increase in calcification relative to the mineralizing condition (HOb cells; 50 μM): 8±17% | mineralization of the HOb cells relative to the mineralizing medium alone (HOb cells; lower concentrations 5, 7.5 and 10 μM (FIG. 4)): decrease in mineralization | production of calcium by the MC3T3-E1 cells (calcium dosage in culture medium) (MC3T3-E1 cells; 9 days, 4 mM Pi, 30 μM compound, vs control+Pi (FIG. 1)): increase the production of calcium | increase in calcification relative to the mineralizing medium (MC3T3-E1 cells; 15 μM): 40±2% | increase in calcification relative to the mineralizing medium (MC3T3-E1 cells; 30 μM): 28±18% | increase in calcification relative to the mineralizing medium (MC3T3-E1 cells; 50 μM): 40±28% | pro-calcifying action on the smooth muscle cells (smooth muscle cells): no pro-calcifying action
